Source: patent US8697629B2, “Modulation of intracellular signaling” (Angstrom Pharmaceuticals, Inc., priority 2010, dated 2014)

What was measured:
Format in all cases: cell-based
SKOV3 cells = assay: Boyden chamber chemotaxis/migration of SKOV3 cells; settings: SKOV3
Experimental: A2780 (FIG. 10a) and SKOV3 (FIG. 10b) cells were incubated with the indicated concentrations of Å6 peptide for 30 min at 37° C. Aliquots representing 6,000 cells were placed on quadruplicate, CnI-coated filters (8 μm pores) in Boyden chambers and the cells allowed to migrate overnight in response to 10 ng/ml VEGF in NIH3T3-conditioned media containing the indicated concentrations of Å6. Upon completion of migration, the apical surfaces of the membranes were wiped clean and the migrating cells on the basal surface were stained with Geimsa stain and the cells present in representative fields of the membranes counted. Data represent the averages+/−standard deviations obtained from the replicate filters. […] This provides further confirmation that CD44 is the target for the Å6 peptide.
SKOV3 cells are harvested by trypsinization and washed once with RPMI−0.5% BSA. Next, the cells are re-suspended in RPMI+0.5% BSA @ 6E4/mL (6000 cells/100 μL). The peptide is pre-treated with 500 μL of cells added to 500 μL peptide NASAPPEE (2× concentration, final conc. at 100, 10, 1, 0.1, 0.01, 0.001 uM) and the mixture incubated 30 minutes at 37° C., under 5% CO2. The Boyden chamber is assembled by: Placing in the bottom chambers: 220 μL of serum/BSA free DMEM or NIH3T3CM+10 ng/ml VEGF or NIH3T3CM+10 ng/ml VEGF+peptide. Place 8 μm filters on the top of the bottom chambers. The 8 μm filters are coated with 1 mg/ml collagen I at 4° C. overnight, washed with PBS twice, air dry before use. Add 200 μL of cells with or without peptide pretreatment to the top of Boyden chamber. Note that the peptide is in both top and bottom chambers. Cells migrate overnight at 37° C., under 5% CO2 in incubator. Next, Boyden chambers are disassembled the and filters collected. The cells on the filters after collection are treated with −20° C. methanol for 3 minutes at room temperature and stained with 30% Geimsa for 7 minutes at room temperature, and washed with water twice. The filters are mounted on slides, air dried and the cells counted.
Cell numbers were obtained by counting the cells in four fields of filters using a 40× objective. The cells migrating into the bottom chambers were also counted as follows: a) 200 μL fluid in the bottom chamber was transferred to a well of 96-well plate; b) The plate was centrifuged at 1200 rpm for 5 minutes; c) 180 μL of supernatant was removed; d) The cell pellet was resuspended with the remaining 20 μL fluid and the cells counted using a hemocytometer. […] This compares favorably to the Å6 peptide which is effective between 5 μM and 100 nM.

MEK = MEK phosphorylation (S217/221) in SKOV3 cells, immunoblot and densitometry
Experimental: (§1) Cells were detached from their culture vessels by brief trypsinization, suspended in complete media and centrifuged at 250×g for 10 min at room temperature. The cell pellets were suspended in Dulbeco's phosphate buffered saline (DPBS) and re-centrifuged for a total of three washes. The cells were then re-suspended at 3.33E5/ml in 24 ml of either RPMI containing 0.5% BSA (Sigma Chem. Co. #A0336) (RPMI/BSA) or the conditioned media of growing NIH3T3 fibroblasts (10% FBS in DMEM) supplemented with 10 ng/ml vascular endothelial growth factor (VEGF) (CMN). The cells were then treated with or without 100 ug/ml soluble hyaluronic acid (HA; human umbilical, Calbiochem #385902) for 30 min at 37° C. under 5% CO2. Aliquots representing 2E6 cells were then plated into 10 cm culture dishes and A6 added to yield final concentrations of 0, 10, 100 and 1000 nM. The cells were cultured overnight (18 hr) at 37° C. under 5% CO2.
(§2) After 18 hr of treatment, the media were aspirated from the 10 cm dishes and saved. The plates were washed 3 times with 4 ml of ice-cold DPBS which were pooled with the reserved non-adherent cells. The non-adherent cells were centrifuged at 250×g for 10 min at 4° C., washed twice with cold DPBS, drained and lysed in 50 ul of cold RIPA buffer (ThermoScientific #89901) containing cocktails of broad spectrum phosphatase inhibitors (Calbiochem #524625; used at 2× final concentration) and protease inhibitors (Sigma #P8340) (RIPA/inh.). The 10 cm dishes were drained of remaining wash and the adherent cells lysed by scraping in 200 μL of cold RIPA/inh. For each test condition, the lysates of the non-adherent and adherent populations were combined, vortexed and then centrifuged at 14,000 rpm at 4° C. for 20 min. Aliquots of the cleared lysates were frozen at −80° C. immediately. A small aliquot was reserved for total protein analysis using a BCA Protein Assay Kit (Calbiochem #71285-3).
(§3) Samples representing 20 μg of total protein of each lysate were solubilized in the presence of 50 mM Tris pH 6.8, 10% glycerol, 2% SDS and 100 mM DTT for 5 min at 95° C. and then loaded onto 10-20% acrylamide gels (BioRad #345-0044, Tris-HCl, 1 mm, 26 well, 15 μL/well). Electrophoresis was performed using Laemli electrophoresis buffer (0.1% SDS, 25 mM Tris, 192 mM glycine) at 200 V, constant voltage, for one hour. Upon completion of electrophoresis, the proteins were transferred to Immun-Blot PVDF membranes (BioRad #162-0238) in ice-cold 20% methanol in 25 mM Tris, 192 mM glycine for 2 hr at 0.5 Amps, constant current/blotting apparatus. […]
(§4) The integrated densities (id) of the bands of interest were measured using Image J software (NIH). […]

PKCalpha = PKCalpha phosphorylation in SKOV3 cells, immunoblot
Experimental: as §1, §2
as §3, with “apparatus. The membranes were then cut vertically between molecular weight markers and in half at the 64 kDa marker to generate pieces for screening of higher molecular weight proteins (e.g., FAK) and lower molecular weight proteins (e.g., MEK and GAPDH).” for “apparatus.”

FAK = FAK phosphorylation in SKOV3 cells, immunoblot and densitometry; settings: SKOV3, all conditions; Y397, Y576/577, Y925
Experimental: as §1, §2, §3, §4

ERK 1/2 = ERK 1/2 phosphorylation (T202/Y204) in SKOV3 cells, immunoblot; settings: basal media (RPMI/BSA)
Experimental: as §1, §2
Samples representing 20 μg of total protein of each lysate were solubilized in the presence of 50 mM Tris pH 6.8, 10% glycerol, 2% SDS and 100 mM DTT for 5 min at 95° C. and then loaded onto 10-20% acrylamide gels (BioRad #345-0044, Tris-HCl, 1 mm, 26 well, 15 μL/well). Electrophoresis was performed using Laemli electrophoresis buffer (0.1% SDS, 25 mM Tris, 192 mM glycine) at 200 V, constant voltage, for one hour. Upon completion of electrophoresis, the proteins were transferred to Immun-Blot PVDF membranes (BioRad #162-0238) in ice-cold 20% methanol in 25 mM Tris, 192 mM glycine for 2 hr at 0.5 Amps, constant current/blotting apparatus. The membranes were then cut vertically between molecular weight markers and in half at the 64 kDa marker to generate pieces for screening of higher molecular weight proteins (e.g., FAK) and lower molecular weight proteins (e.g., MEK and GAPDH). The blots were then blocked for a minimum of 4 hrs at room temperature in 3% bovine serum albumin (Sigma A0336) in 50 mM Tris, pH 7.4, 145 mM NaCl, 0.05% Tween-20 (TTBS) containing 0.05% sodium azide.
Upon completion of the primary antibody incubation, the blots were washed three times for 10 min in TTBS and then incubated with 1/25,000 dilutions of peroxidase-conjugated donkey anti-mouse IgG (Jackson ImmunoResearch #715-035-150) or peroxidase-conjugated donkey anti-rabbit IgG (Jackson ImmunoResearch #711-035-152) in TTBS containing 3% BSA for one hour at room temperature. […]

Substance	cell migration inhibition, lower end of effective concentration range (SKOV3 cells) [nM]	cell migration inhibition, upper end of effective concentration range (SKOV3 cells) [µM]	total MEK levels (MEK)	pMEK/MEK (MEK; under all conditions)	pPCKa/PKCa (PKCalpha)	pFAK/FAK ratios (FAK)	pERK/Erk (ERK 1/2)
NASAPPEE (peptide which potentiates the binding of CD44 polypeptide expressing cells to hyaluronic acid (HA)) [corresponds to amino acids 120-127 of CD44]	1	100					
hyaluronic acid [HA, reference compound]			appears to have decreased	increased	appears to have enhanced	reduced	increased
